# Measurements from patent publication US10743540B2, “3-amino-1,2,4-triazine derivatives and their use for controlling undesired plant growth” (BAYER CROPSCIENCE AKTIENGESELLSCHAFT, priority 2016, dated 2020).
# How the values were obtained:
# Format in all cases: in vivo
# VERPE: Veronica persica [1] = assay: Pre-emergence herbicidal effect; conditions: application rate 320 g/ha, scored visually after 3 weeks, 100% = plants have died, 0% = like control plants
# How it was run: (§1)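 Visual % damage vs untreated controls, scored 3 wk after treatment (100% = plants dead, 0% = like control). Pre-emergence soil-surface spray, WP or EC formulation, 600 to 800 L/ha water + 0.2% wetting agent, sandy loam, greenhouse.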
# [2] = tested on: ECHCG: Echinochloa crus-galli; assay: Pre-emergence herbicidal effect; conditions: application rate 320 g/ha, scored visually after 3 weeks, 100% = plants have died, 0% = like control plants
# How it was run: as §1
# [3] = tested on: POLCO: Polygonum convolvulus; assay: Pre-emergence herbicidal effect; conditions: application rate 320 g/ha, scored visually after 3 weeks, 100% = plants have died, 0% = like control plants
# How it was run: as §1
# [4] = tested on: ALOMY: Alopecurus myosuroides; assay: Pre-emergence herbicidal effect; conditions: application rate 320 g/ha, scored visually after 3 weeks, 100% = plants have died, 0% = like control plants
# How it was run: as §1
# [5] = tested on: MATIN: Matricaria inodora; assay: Pre-emergence herbicidal effect; conditions: application rate 320 g/ha, scored visually after 3 weeks, 100% = plants have died, 0% = like control plants
# How it was run: as §1
# [6] = tested on: LOLMU: Lolium multiflorum; assay: Pre-emergence herbicidal effect; conditions: application rate 320 g/ha, scored visually after 3 weeks, 100% = plants have died, 0% = like control plants
# How it was run: as §1
# SETVI: Setaria viridis = assay: Pre-emergence herbicidal effect; conditions: application rate 320 g/ha, scored visually after 3 weeks, 100% = plants have died, 0% = like control plants
# How it was run: as §1
# STEME: Stellaria media [7] = assay: Pre-emergence herbicidal effect; conditions: application rate 320 g/ha, scored visually after 3 weeks, 100% = plants have died, 0% = like control plants
# How it was run: as §1
# VERPE: Veronica persica [8] = assay: Post-emergence herbicidal effect; conditions: application rate 320 g/ha, treated at one-leaf stage, assessed visually after about 3 weeks, 100% = plants have died
# How it was run: (§2)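 Greenhouse foliar spray, one-leaf stage; WP/EC formulation in water at 600 to 800 L/ha + 0.2% wetting agent. Visual % rating ~3 wk post-treatment vs untreated (100% = plants dead, 0% = as control).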
# VIOTR: Viola tricolor = assay: Post-emergence herbicidal effect; conditions: application rate 320 g/ha, treated at one-leaf stage, assessed visually after about 3 weeks, 100% = plants have died
# How it was run: as §2
# [9] = tested on: ECHCG: Echinochloa crus-galli; assay: Post-emergence herbicidal effect; conditions: application rate 320 g/ha, treated at one-leaf stage, assessed visually after about 3 weeks, 100% = plants have died
# How it was run: as §2
# [10] = tested on: AMARE: Amaranthus retroflexus; assay: Post-emergence herbicidal effect; conditions: application rate 320 g/ha, treated at one-leaf stage, assessed visually after about 3 weeks, 100% = plants have died
# How it was run: as §2
# [11] = tested on: ALOMY: Alopecurus myosuroides; assay: Post-emergence herbicidal effect; conditions: application rate 320 g/ha, treated at one-leaf stage, assessed visually after about 3 weeks, 100% = plants have died
# How it was run: as §2
# STEME: Stellaria media [12] = assay: Post-emergence herbicidal effect; conditions: application rate 320 g/ha, treated at one-leaf stage, assessed visually after about 3 weeks, 100% = plants have died
# How it was run: as §2
# [13] = tested on: ABUTH: Abutilon theophrasti; assay: Pre-emergence herbicidal effect; conditions: application rate 320 g/ha, scored visually after 3 weeks, 100% = plants have died, 0% = like control plants
# How it was run: as §1
Structure (SMILES),Herbicidal activity with respect to [%] VERPE (VERPE: Veronica persica [1]) [%],Herbicidal activity with respect to [%] ECHCG [2] [%],Herbicidal activity with respect to [%] POLCO [3] [%],Herbicidal activity with respect to [%] ALOMY [4] [%],Herbicidal activity with respect to [%] MATIN [5] [%],Herbicidal activity with respect to [%] LOLMU [6] [%],Herbicidal activity with respect to [%] SETVI (SETVI: Setaria viridis) [%],Herbicidal activity with respect to [%] STEME (STEME: Stellaria media [7]) [%],Herbicidal activity with respect to [%] VERPE (VERPE: Veronica persica [8]) [%],Herbicidal activity with respect to [%] VIOTR (VIOTR: Viola tricolor) [%],Herbicidal activity with respect to [%] ECHCG [9] [%],Herbicidal activity with respect to [%] AMARE [10] [%],Herbicidal activity with respect to [%] ALOMY [11] [%],Herbicidal activity with respect to [%] STEME (STEME: Stellaria media [12]) [%],Herbicidal activity with respect to [%] ABUTH [13] [%]
Nc1nc(NC2CCOc3ccc(F)cc32)nnc1C(F)(F)F (racemic) [Example 1.49],100,100,100,100,100,100,100,100,100,90,80,80,80,90,–
CCOC(=O)c1nnc(N[C@H]2c3cc(C)ccc3C[C@@H]2C)nc1N [Example 1.21],80,100,100,90,100,–,100,–,100,80,80,90,80,100,–
CC(=O)c1nnc(N[C@H]2c3cc(C)ccc3C[C@@H]2C)nc1N [Example 1.26],100,100,100,100,100,–,100,100,100,100,100,90,–,100,100
Cc1ccc2c(c1)[C@H](Nc1nnc(C(=O)N(C)C)c(N)n1)[C@@H](C)C2 [Example 1.40],100,100,100,100,100,100,100,100,100,80,–,–,–,–,90
Cc1ccc2c(c1)[C@H](Nc1nnc(S(C)(=O)=O)c(N)n1)[C@@H](C)C2 [Example 1.45],100,100,100,100,100,100,100,100,90,90,100,80,–,90,90
"Nc1nc(NC2CCOc3ccccc32)nnc1C(F)(F)F (centres unmarked) [Example 1.47, N^3-(3,4-Dihydro-2H-chromen-4-yl)-6-(trifluoromethyl)-1,2,4-triazine-3,5-diamine]",100,100,100,80,100,–,100,100,100,100,100,100,100,100,–
CS(=O)(=O)c1nnc(N[C@@H]2CCCc3ccccc32)nc1N [Example 1.66],100,100,100,80,100,100,100,100,100,90,–,–,–,100,100
Cc1ccc2c(c1)[C@H](Nc1nnc([S+](C)[O-])c(N)n1)CCC2 (some centres unmarked) [Example 1.69],100,100,100,90,100,90,100,100,80,80,80,90,90,100,–
CNC(=O)c1nnc(N[C@@H]2CCc3ccc(C)cc32)nc1N [Example 1.76],–,100,100,100,100,–,100,–,–,–,–,80,80,100,100
Cc1ccc2c(c1)[C@H](Nc1nnc(C(N)=O)c(N)n1)CC2 [Example 1.78],–,100,90,100,100,–,100,–,–,80,–,80,100,100,100
